Data from patent publication US9499550B2 (BRISTOL-MYERS SQUIBB COMPANY, priority 2012, dated 2016).
Where two headings read alike, the source gives them in different places.

Key:
[1] = system: HCV genotype 1a (H77 strain) replicon in HUH-7 cells; assay: HCV replicon luciferase reporter assay, genotype 1a; type: cell-based; conditions: Hepatitis C virus, Huh-7, 72 h, HCV genotype 1a replicon luciferase, 3 days incubation
Summary of the method: (§1)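 Replicon inhibition for both genotypes was measured as Renilla luciferase signal (EnduRen, 7.5 μM final, 2 h) after 3-day, 37° C exposure of replicon-bearing HUH-7 cells in 4% FCS DMEM, 0.5% DMSO. The 1b construct carries S1179I; the 1a H77 construct carries P1496L and S2204I. Twenty-point, 3-fold dilutions were fitted four-parametrically for EC50, and CC50 was taken from multiplexed Cell Titer-Blue.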

[2] = system: HCV genotype 1b (Con1) replicon in HUH-7 cells; assay: HCV replicon luciferase reporter assay, genotype 1b; type: cell-based; conditions: Hepatitis C virus, Huh-7, 72 h, HCV genotype 1b replicon luciferase, 3 days incubation
Summary of the method: as §1

[3] = GETYPE1A, read-out: LE_1a (EC50, range)
[4] = GETYPE1B, read-out: LE_1b (EC50, range)

## COc1ccc2c(O[C@@H]3C[C@H]4C(=O)N[C@]5(C(=O)NS(=O)(=O)C6(C)CC6)C[C@H]5/C=C\CC[C@@H](C)C[C@@H](C)[C@H](NC(=O)OC(C)(C)C)C(=O)N4C3)cc(-c3ccc(OC(C)C)cc3)nc2c1 [Compound 4242, tert-butyl ((2R,6S,7R,9R,13aS,14aR,16aS,Z)-2-((2-(4-isopropoxyphenyl)-7-methoxyquinolin-4-yl)oxy)-7,9-dimethyl-14a-(((1-methylcyclopropyl)sulfonyl)carbamoyl)-5,16-dioxo-1,2,3,5,6,7,8,9,10,11,13a,14,14a,15,16,16a-hexadecahydrocyclopropa[e]pyrrolo[1,2-a][1,4]diazacyclopentadecin-6-yl)carbamate]
[1]; read-out: LE_1a (EC50, range)
  EC50: 0.51 to 1 nM
[2]; read-out: LE_1b (EC50, range)
  EC50: 0.51 to 1 nM

## CC[C@@H]1C[C@H](C)CC/C=C\[C@@H]2C[C@@]2(C(=O)NS(=O)(=O)C2CC2)NC(=O)[C@@H]2C[C@@H](Oc3ncc(N4CCOCC4)c4cc(OC)c(F)cc34)CN2C(=O)[C@H]1NC(=O)OC(C)(C)C(F)(F)F [Compound 4243]
[1]; [3]
  EC50: 1.01 to 5 nM
[2]; [4]
  EC50: 0.51 to 1 nM

## CC[C@@H]1C[C@H](C)CC/C=C\[C@@H]2C[C@@]2(C(=O)NS(=O)(=O)C2(C)CC2)NC(=O)[C@@H]2C[C@@H](Oc3nc4cc(OC)ccc4nc3C(F)(F)F)CN2C(=O)[C@H]1NC(=O)OC(C)(C)C(F)(F)F [Compound 4244]
[1]; [3]
  EC50: 1.01 to 5 nM
[2]; [4]
  EC50: 1.01 to 5 nM

## CC[C@@H]1C[C@H](C)CC/C=C\[C@@H]2C[C@@]2(C(=O)NS(=O)(=O)C2(C)CC2)NC(=O)[C@@H]2C[C@@H](Oc3cc(-n4cccn4)nc4cc(OC)ccc34)CN2C(=O)[C@H]1NC(=O)OC(C)(C)C [Compound 4245, tert-butyl ((2R,6S,7R,9R,13aS,14aR,16aS,Z)-7-ethyl-2-((7-methoxy-2-(1H-pyrazol-1-yl)quinolin-4-yl)oxy)-9-methyl-14a-(((1-methylcyclopropyl)sulfonyl)carbamoyl)-5,16-dioxo-1,2,3,5,6,7,8,9,10,11,13a,14,14a,15,16,16a-hexadecahydrocyclopropa[e]pyrrolo[1,2-a][1,4]diazacyclopentadecin-6-yl)carbamate]
[1]; read-out: LE_1a (EC50, range)
  EC50: 0.51 to 1 nM
[2]; read-out: LE_1b (EC50, range)
  EC50: 0.1 to 0.5 nM

## CC[C@@H]1C[C@H](C)CC/C=C\[C@@H]2C[C@@]2(C(=O)NS(=O)(=O)C2(C)CC2)NC(=O)[C@@H]2C[C@@H](Oc3cc(-n4cccn4)nc4cc(OC)ccc34)CN2C(=O)[C@H]1NC(=O)OC(C)(C)C(F)(F)F [Compound 4246]
[1]; [3]
  EC50: 1.01 to 5 nM
[2]; [4]
  EC50: 0.51 to 1 nM

## COc1ccc2c(O[C@@H]3C[C@H]4C(=O)N[C@]5(C(=O)NS(=O)(=O)C6(C)CC6)C[C@H]5/C=C\CC[C@@H](C)C[C@@H](C)[C@H](NC(=O)OC(C)(C)C(F)(F)F)C(=O)N4C3)cc(-c3ccc(OC(C)C)c(F)c3)nc2c1 [Compound 4247]
[1]; [3]
  EC50: 1.01 to 5 nM
[2]; [4]
  EC50: 1.01 to 5 nM

## CCOc1cnc(O[C@@H]2C[C@H]3C(=O)N[C@]4(C(=O)NS(=O)(=O)C5CC5)C[C@H]4/C=C\CC[C@@H](C)C[C@@H](CC)[C@H](NC(=O)OC(C)(C)C(F)(F)F)C(=O)N3C2)c2ccc(OC)cc12 [Compound 4249]
[1]; [3]
  EC50: 1.01 to 5 nM
[2]; [4]
  EC50: 0.51 to 1 nM

## CC[C@@H]1C[C@H](C)CC/C=C\[C@@H]2C[C@@]2(C(=O)NS(=O)(=O)C2(C)CC2)NC(=O)[C@@H]2C[C@@H](Oc3nc4cc(OC)ccc4nc3C(C)C)CN2C(=O)[C@H]1NC(=O)OC(C)(C)C [Compound 4250, tert-butyl ((2R,6S,7R,9R,13aS,14aR,16aS,Z)-7-ethyl-2-((3-isopropyl-7-methoxyquinoxalin-2-yl)oxy)-9-methyl-14a-(((1-methylcyclopropyl)sulfonyl)carbamoyl)-5,16-dioxo-1,2,3,5,6,7,8,9,10,11,13a,14,14a,15,16,16a-hexadecahydrocyclopropa[e]pyrrolo[1,2-a][1,4]diazacyclopentadecin-6-yl)carbamate]
[1]; read-out: LE_1a (EC50, range)
  EC50: 1.01 to 5 nM
[2]; read-out: LE_1b (EC50, range)
  EC50: 1.01 to 5 nM

## CC[C@@H]1C[C@H](C)CC/C=C\[C@@H]2C[C@@]2(C(=O)NS(=O)(=O)C2(C)CC2)NC(=O)[C@@H]2C[C@@H](Oc3nc4cc(OC)ccc4nc3C(C)C)CN2C(=O)[C@H]1NC(=O)OC(C)(C)C(F)(F)F [Compound 4251]
[1]; [3]
  EC50: 1.01 to 5 nM
[2]; [4]
  EC50: 1.01 to 5 nM

## CC[C@@H]1C[C@H](C)CC/C=C\[C@@H]2C[C@@]2(C(=O)NS(=O)(=O)C2CC2)NC(=O)[C@@H]2C[C@@H](Oc3ncc(OC)c4c(Cl)cccc34)CN2C(=O)[C@H]1NC(=O)OC(C)(C)C(F)(F)F [Compound 4252]
[1]; [3]
  EC50: 1.01 to 5 nM
[2]; [4]
  EC50: 0.51 to 1 nM

## CC[C@@H]1C[C@H](C)CC/C=C\[C@@H]2C[C@@]2(C(=O)NS(=O)(=O)C2(C)CC2)NC(=O)[C@@H]2C[C@@H](Oc3ncc(OC)c4c(Cl)cccc34)CN2C(=O)[C@H]1NC(=O)OC(C)(C)C(F)(F)F [Compound 4253]
[1]; [3]
  EC50: 1.01 to 5 nM
[2]; [4]
  EC50: 0.51 to 1 nM

## CC[C@@H]1C[C@H](C)CC/C=C\[C@@H]2C[C@@]2(C(=O)NS(=O)(=O)C2(C)CC2)NC(=O)[C@@H]2C[C@@H](Oc3ncc(N4CCN(S(C)(=O)=O)CC4)c4cc(OC)ccc34)CN2C(=O)[C@H]1NC(=O)OC(C)(C)C(F)(F)F [Compound 4254]
[1]; [3]
  EC50: 1.01 to 5 nM
[2]; [4]
  EC50: 0.51 to 1 nM

## CC[C@@H]1C[C@H](C)CC/C=C\[C@@H]2C[C@@]2(C(=O)NS(=O)(=O)C2(C)CC2)NC(=O)[C@@H]2C[C@@H](Oc3nc4cc(OC)ccc4nc3Cl)CN2C(=O)[C@H]1NC(=O)OC(C)(C)C [Compound 4256, tert-butyl ((2R,6S,7R,9R,13aS,14aR,16aS,Z)-2-((3-chloro-7-methoxyquinoxalin-2-yl)oxy)-7-ethyl-9-methyl-14a-(((1-methylcyclopropyl)sulfonyl)carbamoyl)-5,16-dioxo-1,2,3,5,6,7,8,9,10,11,13a,14,14a,15,16,16a-hexadecahydrocyclopropa[e]pyrrolo[1,2-a][1,4]diazacyclopentadecin-6-yl)carbamate]
[1]; read-out: LE_1a (EC50, range)
  EC50: 0.51 to 1 nM
[2]; read-out: LE_1b (EC50, range)
  EC50: 0.1 to 0.5 nM

## CC[C@@H]1C[C@H](C)CC/C=C\[C@@H]2C[C@@]2(C(=O)NS(=O)(=O)C2(C)CC2)NC(=O)[C@@H]2C[C@@H](Oc3nc4cc(OC)ccc4nc3Cl)CN2C(=O)[C@H]1NC(=O)OC(C)(C)C(F)(F)F [Compound 4257]
[1]; [3]
  EC50: 5.01 to 35 nM
[2]; [4]
  EC50: 0.51 to 1 nM

## COc1ccc2nc(C(C)C)c(O[C@@H]3C[C@H]4C(=O)N[C@]5(C(=O)NS(=O)(=O)C6(C)CC6)C[C@H]5/C=C\CC[C@@H](C)C[C@@H](C)[C@H](NC(=O)OC(C)(C)C(F)(F)F)C(=O)N4C3)nc2c1 [Compound 4259]
[1]; [3]
  EC50: 1.01 to 5 nM
[2]; [4]
  EC50: 0.51 to 1 nM

## COc1ccc2nc(O[C@@H]3C[C@H]4C(=O)N[C@]5(C(=O)NS(=O)(=O)C6(C)CC6)C[C@H]5/C=C\CC[C@@H](C)C[C@@H](C)[C@H](NC(=O)OC(C)(C)C)C(=O)N4C3)c(-c3ccc(OC(C)C)cc3)nc2c1 [Compound 4260, tert-butyl ((2R,6S,7R,9R,13aS,14aR,16aS,Z)-2-((3-(4-isopropoxyphenyl)-6-methoxyquinoxalin-2-yl)oxy)-7,9-dimethyl-14a-(((1-methylcyclopropyl)sulfonyl)carbamoyl)-5,16-dioxo-1,2,3,5,6,7,8,9,10,11,13a,14,14a,15,16,16a-hexadecahydrocyclopropa[e]pyrrolo[1,2-a][1,4]diazacyclopentadecin-6-yl)carbamate]
[1]; read-out: LE_1a (EC50, range)
  EC50: 1.01 to 5 nM
[2]; read-out: LE_1b (EC50, range)
  EC50: 1.01 to 5 nM

## COc1ccc2nc(O[C@@H]3C[C@H]4C(=O)N[C@]5(C(=O)NS(=O)(=O)C6(C)CC6)C[C@H]5/C=C\CC[C@@H](C)C[C@@H](C)[C@H](NC(=O)OC(C)(C)C(F)(F)F)C(=O)N4C3)c(-c3ccc(OC(C)C)cc3)nc2c1 [Compound 4261]
[1]; [3]
  EC50: 5.01 to 35 nM
[2]; [4]
  EC50: 1.01 to 5 nM

## CC[C@@H]1C[C@H](C)CC/C=C\[C@@H]2C[C@@]2(C(=O)NS(=O)(=O)C2CC2)NC(=O)[C@@H]2C[C@@H](Oc3nc4cc(OC)ccc4nc3O)CN2C(=O)[C@H]1NC(=O)OC(C)(C)C [Compound 4262]
[1]; read-out: LE_1a (EC50, range)
  EC50: 35 to 620 nM
[2]; read-out: LE_1b (EC50, range)
  EC50: 35 to 620 nM

## CC[C@@H]1C[C@H](C)CC/C=C\[C@@H]2C[C@@]2(C(=O)NS(=O)(=O)C2CC2)NC(=O)[C@@H]2C[C@@H](Oc3nc4cc(OC)ccc4nc3C(F)(F)F)CN2C(=O)[C@H]1NC(=O)OC(C)(C)C(F)(F)F [Compound 4263]
[1]; [3]
  EC50: 1.01 to 5 nM
[2]; [4]
  EC50: 0.51 to 1 nM

## CC[C@@H]1C[C@H](C)CC/C=C\[C@@H]2C[C@@]2(C(=O)NS(=O)(=O)C2CC2)NC(=O)[C@@H]2C[C@@H](Oc3nc4cc(OC)c(F)cc4nc3O)CN2C(=O)[C@H]1NC(=O)OC(C)(C)C [Compound 4265, tert-butyl ((2R,6S,7R,9R,13aS,14aR,16aS,Z)-14a-((cyclopropylsulfonyl)carbamoyl)-7-ethyl-2-((6-fluoro-3-hydroxy-7-methoxyquinoxalin-2-yl)oxy)-9-methyl-5,16-dioxo-1,2,3,5,6,7,8,9,10,11,13a,14,14a,15,16,16a-hexadecahydrocyclopropa[e]pyrrolo[1,2-a][1,4]diazacyclopentadecin-6-yl)carbamate]
[1]; read-out: LE_1a (EC50)
  EC50: 616 nM
[1]; read-out: LE_1a (EC50, range)
  EC50: 35 to 620 nM
[2]; read-out: LE_1b (EC50)
  EC50: 475 nM
[2]; read-out: LE_1b (EC50, range)
  EC50: 35 to 620 nM

## CC[C@@H]1C[C@H](C)CC/C=C\[C@@H]2C[C@@]2(C(=O)NS(=O)(=O)C2CC2)NC(=O)[C@@H]2C[C@@H](Oc3nc4cc(OC)c(F)cc4nc3C(F)(F)F)CN2C(=O)[C@H]1NC(=O)OC(C)(C)C [Compound 4266, tert-butyl ((2R,6S,7R,9R,13aS,14aR,16aS,Z)-14a-((cyclopropylsulfonyl)carbamoyl)-7-ethyl-2-((6-fluoro-7-methoxy-3-(trifluoromethyl)quinoxalin-2-yl)oxy)-9-methyl-5,16-dioxo-1,2,3,5,6,7,8,9,10,11,13a,14,14a,15,16,16a-hexadecahydrocyclopropa[e]pyrrolo[1,2-a][1,4]diazacyclopentadecin-6-yl)carbamate]
[1]; read-out: LE_1a (EC50, range)
  EC50: 1.01 to 5 nM
[2]; read-out: LE_1b (EC50, range)
  EC50: 1.01 to 5 nM
